{"source": "patent US8334253B2", "about": "“Cosmetic and dermatological formulations of MNTF peptides” (Dermacare Neuroscience Institute, priority 2008, dated 2012)", "key": {"[1]": {"test_system": "gamma interferon-induced NO production in epidermal keratinocytes", "assay": "Inhibition of gamma interferon-induced nitric oxide production in keratinocytes (Griess reaction)", "assay_type": "cell-based", "settings": "keratinocytes, 48 hours, gamma-interferon 300 U/ml", "source_text": "The study method chosen is similar to that published in the reference Tsai et al. (Tsai et al, Inhibition of inflammatory nitric oxide production and epidermis damages by Saccharomycopsis Ferment Filtrate. J Dermatol Sci 2006 June 42 (3): 249-57. Laskin, Multifunctional Role of Nitric Oxide in Inflammation, Trends Endocrinol Metab 1994; 5:377-382. Lyons, Emerging Roiles of Nitric Oxide in Inflammation, Hospital Practice, Jul. 15, 1996: 69-86.)\nThe objective of the study was to investigate the inhibition effect of Pal-hexapeptide (SEQ ID NO: 2, in palmitylated form) on gamma interferon-induced NO production in epidermal keratinocytes in culture.\nAnti-inflammatory effect was observed as a reduction of nitric oxide production in keratinocytes. Keratinocytes were incubated 48 hours with gamma-interferon (300 U/ml) alone (as control) or with gamma-interferon together with different concentrations (0.1 μM, 1 μM, 10 μM, 100 μM and 1000 μM) of Pal-hexapeptide. Gamma interferon plus aminoguanidine (10 mg/mL) was used as positive control. The amount of NO production was detected by Griess reaction. Nitric oxide readily oxides to nitrite in aqueous medium, and this reaction was measured as nitrite accumulation in the medium. […] The optical density of the wells were read using a Tibertek Mutiskan (MCC microplate reader at a wavelength of 540 nm, subtracting the absorbance at a reference wavelength of 620 nm.) A printout of the absorbance values was generated by the plate reader, and data were entered into an EXCEL spreadsheet for analysis. The average absorbance and standard deviations were expressed as percent of control absorbances."}, "[2]": {"test_system": "UVA-bleaching of beta-carotene", "assay": "UVA bleaching of beta-carotene on forearm skin, Color Index by CHROMAMETER", "assay_type": "in vivo, human", "settings": "0.1% gel on human forearm, UVA", "protocol": "In-vivo method for assessing the protective effects of cosmetic products. Bleaching of carotenoids have been used to evaluate the auto-oxidation activity of natural products. The relative efficacy of scavengers of lipid peroxyl free radicals after application to the skin was assessed by measuring the UVA-bleaching of beta-carotene as a function of the energy exposure.\nA CHROMAMETER colorimeter (TM, Minolta Model CR-300) was used to measure changes in color by expressing the color of measured surfaces numerically in L*a*b* color space which is a system recommended by the CIE (Commission Internationale de I'Eclairage) for skin color assessment. In this color space, L* is the luminance and gives the relative brightness from total black (L*=0) to total white (L*=100). The a* value represents the balance between the reds (positive values) and the greens (negative values). The b* value represents the balance between the yellows (positive values) and the blues (negative values). The b* value most closely describes the intensity of the orange color of the β-carotene stain and is in direct correlation with the Color Index, I. The CHROMAMETER provides a means by which oxidative damage caused by free radicals and, conversely, the prevention of oxidation by free radical scavengers, can be measured. Free radical oxidation induced by UVA radiation elicits a bleaching and reduction of color of beta-carotene stain. The bleaching and prevention of bleaching by a test material can be measured by the CHROMAMETER. Bleaching is reported as the change in b* versus UVA Irradiation Energy. It can also be expressed in terms of a Color Index, I, defined as: I=[(bn*−bi*)/(b0*−bi*)]×100 where, bn* is the value of b* measured after n J/cm^2 of irradiation of the area treated with the cosmetic formulation and painted with the β-carotene; b0* is the value of b* after application of the beta-carotene but before irradiation; and bi* is the value of b* before application of the beta-carotene. This index compensates for any effects of skin color on bn* and b0*. Bleaching will cause bn* value and I value (as a percentage) to decrease. Prevention of bleaching will result in higher I values or less reduction in I value when exposed to radiation.\nThe designated forearm of impaneled subjects was cleansed with a 70% isopropyl alcohol prep pad (Medium, Dynarex) and allowed to dry. Test sites were selected on the volar surface of the designated forearm of each subject, with each test site defined by the open, central area of a self-adhesive ring (Professional ProFoot™ Products, P.P.R. Co, Inc.). The adhesive side of the rings were placed directly on the skin. The rings were used to retain the test material and beta-carotene solution as well as to function as a guide for taking measurements with the CHROMAMETER.\nGel formulations (0.1% Pal-hexapeptide) and (0.1% hexapeptide) were applied to the forearm according to a randomized schedule. Additional sites were treated with a beta-carotene control, a positive control (internal control) and an untreated control. Treatment of the test sites were randomized for each subject.\nPrior to application of the test materials or beta-carotene, the initial b* parameter was measured using the CHROMAMETER and recorded for all duplicate test sites of the forearm (Baseline). Approximately 2 mg/cm^2 of each material was applied to the designated test site and spread manually with a finger cot to ensure even distribution. Sites designated as untreated, with or without beta-carotene, remained untreated at this time. The test materials and internal control were allowed to incubate with the skin surface for a period of fifteen (15) minutes. After this incubation period, b* measurements were recorded for all sites (Product Baseline).\nA solution of beta-carotene in a mixture of capric and caprylic triglycerides was applied to all treated sites. The b* parameter is again measured and recorded (beta-carotene Baseline). […]"}}, "note": "Peptide text beside a SMILES is read from it. * marks the point of attachment. Palmitoyl = CCCCCCCCCCCCCCCC(=O)*", "data": [{"smiles": "CCCCCCCCCCCCCCCC(=O)N[C@@H](Cc1ccccc1)C(=O)N[C@@H](CO)C(=O)N[C@@H](CCCNC(=N)N)C(=O)N[C@@H](Cc1ccc(O)cc1)C(=O)N[C@@H](C)C(=O)N[C@@H](CCCNC(=N)N)C(=O)O", "note": "[Pal 6 mer, Pal-FSRYAR] (Palmitoyl-FSRYAR-OH; C-terminus assumed)", "values": [{"measurement": "nitric oxide production induced by Gamma-interferon, % of the control", "setting": "[1]; 0.1 μM", "result": 92, "unit": "%"}, {"measurement": "nitric oxide production induced by Gamma-interferon, % of the control", "setting": "[1]; 1 μM", "result": 72, "unit": "%"}, {"measurement": "nitric oxide production induced by Gamma-interferon, % of the control", "setting": "[1]; 10 μM", "result": 57, "unit": "%"}, {"measurement": "nitric oxide production induced by Gamma-interferon, % of the control", "setting": "[1]; 100 μM", "result": 24, "unit": "%"}, {"measurement": "nitric oxide production induced by Gamma-interferon, % of the control", "setting": "[1]; 1000 μM", "result": 31, "unit": "%"}, {"measurement": "preventing the bleaching of beta-carotene compared to the beta-carotene control", "setting": "[2]", "result": "effective as a free radical scavenger"}]}]}
